# The supplement of paper PMC10307832
# Key:
# Assay in all cases: relative viability (nuclei count vs DMSO), 5 days (fraction); higher = more cells survive
# Linsitinib + Luminespib = compound: C[C@]1(O)C[C@@H](c2nc(-c3ccc4ccc(-c5ccccc5)nc4c3)c3c(N)nccn32)C1 [Linsitinib] + CCNC(=O)c1noc(-c2cc(C(C)C)c(O)cc2O)c1-c1ccc(CN2CCOCC2)cc1 [Luminespib] (partner 0.01 µM)
# Outline: (§1)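 Lung cancer cell lines were pin-tool dosed in 1536-well plates on the day after seeding, with either a lone drug or a fixed anchor-drug dose plus five library-drug doses (not always all listed) in √10 steps. Nuclei were counted on 4× images after 5 days. Relative viability is the ratio of treated-well to vehicle-well nuclei counts, with each value a median of duplicate plates.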
# Linsitinib + AZD7762 = compound: C[C@]1(O)C[C@@H](c2nc(-c3ccc4ccc(-c5ccccc5)nc4c3)c3c(N)nccn32)C1 [Linsitinib] + NC(=O)Nc1cc(-c2cccc(F)c2)sc1C(=O)N[C@H]1CCCNC1 [AZD7762] (partner 0.2 µM)
# Outline: as §1
# Ispinesib + Dasatinib = compound: Cc1ccc(C(=O)N(CCCN)[C@@H](c2nc3cc(Cl)ccc3c(=O)n2Cc2ccccc2)C(C)C)cc1 [Ispinesib] + Cc1nc(Nc2ncc(C(=O)Nc3c(C)cccc3Cl)s2)cc(N2CCN(CCO)CC2)n1 [Dasatinib] (partner 0.075 µM)
# Outline: as §1
# Ispinesib + Vorinostat = compound: Cc1ccc(C(=O)N(CCCN)[C@@H](c2nc3cc(Cl)ccc3c(=O)n2Cc2ccccc2)C(C)C)cc1 [Ispinesib] + O=C(CCCCCCC(=O)Nc1ccccc1)NO [Vorinostat] (partner 1 µM)
# Outline: as §1
Cell Line,relative viability (Linsitinib + Luminespib; first compound 0.01 µM),relative viability (Linsitinib + Luminespib; first compound 0.03162 µM),relative viability (Linsitinib + Luminespib; first compound 0.1 µM),relative viability (Linsitinib + Luminespib; first compound 1 µM),relative viability (Linsitinib + AZD7762; first compound 0.01 µM),relative viability (Linsitinib + AZD7762; first compound 0.03162 µM),relative viability (Linsitinib + AZD7762; first compound 0.1 µM),relative viability (Linsitinib + AZD7762; first compound 0.3162 µM),relative viability (Linsitinib + AZD7762; first compound 1 µM),relative viability (Ispinesib + Dasatinib; first compound 0.001 µM),relative viability (Ispinesib + Dasatinib; first compound 0.003162 µM),relative viability (Ispinesib + Dasatinib; first compound 0.01 µM),relative viability (Ispinesib + Dasatinib; first compound 0.03162 µM),relative viability (Ispinesib + Dasatinib; first compound 0.1 µM),relative viability (Ispinesib + Vorinostat; first compound 0.001 µM),relative viability (Ispinesib + Vorinostat; first compound 0.003162 µM),relative viability (Ispinesib + Vorinostat; first compound 0.01 µM),relative viability (Ispinesib + Vorinostat; first compound 0.03162 µM),relative viability (Ispinesib + Vorinostat; first compound 0.1 µM),relative viability (Linsitinib + Luminespib; first compound 0.3162 µM)
NCI-H2347,0.454,0.284,0.362,0.389,0.645,0.736,0.792,0.747,0.669,0.285,0.209,0.289,0.284,0.282,0.562,0.617,0.738,0.625,0.471,–
NCI-H1651,0.754,0.903,0.801,0.682,0.221,0.467,0.429,0.525,0.447,0.655,0.497,0.479,0.334,0.136,0.529,0.605,0.676,0.512,0.548,0.621
H3255,0.87,1,0.869,0.917,0.7,0.884,0.813,0.69,0.806,0.316,0.419,0.357,0.307,0.244,0.79,1.09,0.804,0.479,0.413,0.594
NCI-H2228,0.138,0.179,0.214,0.139,–,–,–,–,–,0.557,0.522,0.665,0.211,0.2,0.742,0.786,0.722,0.341,0.242,0.145
HCC-366,–,–,–,–,0.261,0.228,0.301,0.361,0.12,0.701,0.74,0.733,0.704,0.0265,0.353,0.512,0.351,0.216,0.0545,–
NCI-H1650,0.196,0.167,0.235,0.172,–,–,–,–,–,0.35,0.353,0.349,0.186,0.151,0.779,0.535,0.521,0.416,0.234,0.202
NCI-H1648,–,–,–,–,0.683,0.671,0.713,0.692,0.612,–,–,–,–,–,0.594,0.682,0.422,0.634,0.428,–
HCC-78,–,–,–,–,–,0.56,0.415,0.666,0.472,0.388,0.542,0.464,0.348,0.267,0.422,0.49,0.459,0.404,0.414,–
IA-LM,–,–,–,–,–,–,–,–,–,–,–,–,–,–,0.889,0.863,1.01,1.23,0.369,–
COR-L 105,0.857,0.688,0.644,0.581,–,–,–,–,–,0.462,0.303,0.31,0.195,0.238,0.933,0.51,1.04,0.49,0.522,0.638
NCI-H1703,–,–,–,–,0.158,0.142,0.112,–,0.12,–,–,–,–,–,–,–,–,–,–,–
NCI-H2023,0.599,0.627,0.879,0.501,–,–,–,–,–,0.693,0.613,0.613,0.306,0.146,0.646,0.563,0.43,0.237,0.162,0.646
HCC-44,1.12,1.01,0.818,0.912,1.01,0.962,0.995,0.855,0.925,–,–,–,–,–,1.04,1.05,1.15,1.23,1.08,0.68
NCI-H1623,0.43,0.483,0.5,0.307,–,–,–,–,–,0.63,0.63,0.523,0.461,0.468,–,–,–,–,–,–
SK-LU-1,0.212,–,0.203,0.215,–,–,–,–,–,0.173,0.173,0.173,0.144,0.112,0.709,0.763,0.911,0.615,0.506,0.208
NCI-H1563,0.599,0.607,0.51,0.525,–,–,–,–,–,0.395,0.483,0.469,0.417,0.378,–,–,–,–,–,0.486
COR-L23,0.678,0.48,0.783,0.583,–,–,–,–,–,0.564,0.498,0.474,0.0917,0.172,0.422,0.448,0.342,0.14,0.175,0.555
NCI-H1792,0.427,0.52,0.371,0.328,0.74,0.684,0.539,0.326,0.277,1.25,0.777,0.776,0.9,0.325,–,–,–,–,–,0.297
NCI-H2009,1.01,1.01,1.06,1.06,–,–,–,–,–,0.264,0.325,0.271,0.142,0.144,0.859,0.732,0.746,0.72,0.213,–
